# According to PMC12457078, “Inhibition of soluble epoxide hydrolase in endotoxin induced pig lung injury” (Frontiers in Pharmacology, 2025):
# How the values were obtained:
# [1] = liver microsomal assay (metabolic stability); assay type: in vitro ADME, pig
# Protocol: To further characterize the inhibitors with regard to suitability for administration in pigs, a microsomal assay was used to determine metabolic stability ([Ackley et al., 2004]) for a subset of eight inhibitors chosen for their potency and availability. Microsomal preparations from pig liver were purchased from XenoTech (Kansas City, KS, US). Microsomes, buffer and NADPH generating system were combined, and then the inhibitor was added. The reaction was stopped after 35 min with ice cold acetonitrile containing internal standard (12-[[(cyclohexylamino)carbonyl]amino]-dodecanoic acid). The amount left of parent inhibitor was determined with LC-MS/MS.
# [2] = pharmacokinetic pilot, continuous infusion in one animal; assay type: in vivo; conditions: pig, whole blood, intravenous, 0.1 mg/kg/h, time 240 minutes (STOP INFUSION), read-out: Conc in blood 950
# [3] = as above; assay type: in vivo, pig
# Protocol: One animal served as a pharmacokinetic pilot, with arterial and venous catheters placed in a cut-down in the neck. The remaining 21 animals were used for the randomized study (Figure 1). After intubation and start of mechanical ventilation, a second auricular vein cannula was placed and infusion of either AEPU or placebo according to randomization was started. After 2 h of infusion of AEPU or placebo, an infusion of LPS was started. A bolus of 0.1 mg/kg was administered during 30 min after which the infusion rate was adjusted to 0.01 mg/kg/h. During the time between start of AEPU or placebo and LPS infusion, neck dissection was performed, exposing the v jugularis externa and carotid artery. A pulmonary artery introducer and an arterial cannula were placed in vein and artery respectively, and a pulmonary artery catheter introduced through the introducer and the tip placed in the correct position in the pulmonary artery placement guided by continuous invasive pressure monitoring or, when difficult, assisted by fluoroscopy. All surgical procedures were performed under sterile conditions.
# AEPU was synthesized according to Kim et al. ([Kim et al., 2007]), delivered in 60 mg vials and dissolved in 30 mL pure ethanol as a co-solvent, of which either 20 mL was added to 980 mL of sodium chloride 9 mg/mL or 8 mL–392 mL sodium chloride, creating a solution of 0.04 mg/mL AEPU and 2% ethanol. The placebo infusion was prepared by adding either 20 mL of pure ethanol to 980 mL of sodium chloride 9 mg/mL or 8 mL of pure ethanol to 392 mL sodium chloride, creating a 2% ethanol solution. Each animal received an infusion of either 0.1 mg/kg/h AEPU or the corresponding volume of placebo solution.
# Infusion of AEPU at 0.1 mg/kg/h produced a progressive rise in blood concentration reaching steady state of approximately 200 nM at 120 min, maintained with only minor variations until the termination of infusion at 255 min. The elimination of AEPU after termination of infusion was rapid, showing complete elimination within 15 min (Figure 2).
compound,measurement,setting,value
CCOCCOCCOCCCCCNC(=O)NC12CC3CC(CC(C3)C1)C2 [Compound 950],metabolic stability,[1],low
same,concentration at 240 min,[2],199 ng/mL
same,time to complete elimination after termination of infusion,[3]; infusion 0.1 mg/kg/h,≤ 15 min
same,concentration at 0 min,"[3]; pig, whole blood, intravenous, 0.1 mg/kg/h, time 0 minutes, read-out: Conc in blood 950",11 ng/mL
same,concentration at 5 min,"[3]; pig, whole blood, intravenous, 0.1 mg/kg/h, time 5 minutes, read-out: Conc in blood 950",45 ng/mL
same,concentration at 35 min,"[3]; pig, whole blood, intravenous, 0.1 mg/kg/h, time 35 minutes, read-out: Conc in blood 950",116 ng/mL
same,concentration at 65 min,"[3]; pig, whole blood, intravenous, 0.1 mg/kg/h, time 65 minutes, read-out: Conc in blood 950",174 ng/mL
same,concentration at 121 min,"[3]; pig, whole blood, intravenous, 0.1 mg/kg/h, time 121 minutes, read-out: Conc in blood 950",199 ng/mL
same,concentration at 185 min,"[3]; pig, whole blood, intravenous, 0.1 mg/kg/h, time 185 minutes, read-out: Conc in blood 950",202 ng/mL
same,concentration at 255 min,"[3]; pig, whole blood, intravenous, 0.1 mg/kg/h, time 255 minutes, read-out: Conc in blood 950",224 ng/mL
same,concentration at 270 min,"[3]; pig, whole blood, intravenous, 0.1 mg/kg/h, time 270 minutes, read-out: Conc in blood 950",0.189 ng/mL
same,concentration at 285 min,"[3]; pig, whole blood, intravenous, 0.1 mg/kg/h, time 285 minutes, read-out: Conc in blood 950",0.189 ng/mL
same,concentration at 300 min,"[3]; pig, whole blood, intravenous, 0.1 mg/kg/h, time 300 minutes, read-out: Conc in blood 950",0.189 ng/mL
same,concentration at 330 min,"[3]; pig, whole blood, intravenous, 0.1 mg/kg/h, time 330 minutes, read-out: Conc in blood 950",0.189 ng/mL
same,concentration at 120 min,"[3]; pig, whole blood, intravenous, infusion 0.1 mg/kg/h, reached at 120 min, read-out: steady state blood concentration",~200 nM
